Test results: article PMC4641600, “Novel Activities of Select NSAID R-Enantiomers against Rac1 and Cdc42 GTPases” (PLoS ONE, 2015)

Legend:
[1] = target: Rac1Q61L activating mutant (Homo sapiens, UniProt P63000, Q61L); assay: Dose response, BODIPY-GTP binding; settings: 10 nM to 100 µM
[2] = target: Cdc42Q61L activating mutant (Homo sapiens, UniProt P60953, Q61L); assay: Dose response, BODIPY-GTP binding
Ras-related GTPases = assay: Confirmatory dose response assays on eight Ras-related GTPases; format: binding
Description: For multiplex analyses of small GTPases, 4 μm diameter glutathione-beads (GSH-beads) distinguished by seven different intensities of red fluorescence were used according to our previously described protocols. The GST-GTPases included the following eight Ras-related small GTPases: Rab2 wt, Rab7 wt, Cdc42 wt, Cdc42Q61L activating mutant, H-Ras wt, H-RasG12V, Rac1 wt and Rac1Q61L activating mutant. Briefly, Prestwick Chemical Library® compounds were tested at 10 μM compound and 1% DMSO final concentrations. After a 10 min pre-incubation with the compound BODIPY- FL-GTP (100 nM final) was added to each well and bead associated fluorescence was measured. Sample analysis was conducted with a HyperCyt® high throughput flow cytometry platform. Flow cytometric light scatter at 488 nm and fluorescence emission at 530 +/− 20 nm (FL1) and 665 +/− 10 nm (FL8) were collected on a Cyan ADP flow cytometer (Beckman Coulter, Fullerton, CA). IDLQuery software was used to determine the compound activity in each well. Gating based on forward scatter (FS) and side scatter (SS) parameters was used to identify singlet bead populations. Gating based on FL8 emission distinguishes the beads coated with different proteins, and the median FL1 fluorescence per bead population were calculated. A compound was considered a “potential active” if the change in BODIPY-FL-GTP binding differed greater than 20% from that measured in DMSO treated controls.
Test compounds identified for follow-up after the primary screen were tested at dilutions ranging from 10 nM to 100 μM final concentration against individual GTPases in multiplex and single-plex assays. Compounds tested in dose response assays were serially diluted 1:3 a total of eight times from a starting concentration of 10 mM giving a 9-point dilution series in DMSO.
bConfirmatory screens entailed dose response assays conducted in a multiplex format with eight GTPases tested as for primary screen. BODIPY-GTP-binding activity was
measured in the presence of 10 nM to 100 µM of each of 11 test compounds (4 primary screen hits and 7 additional NSAIDs considered to have chemical similarity to GTPase
active compounds). GST-GFP coated beads served as a control to detect non-specific dissociation or denaturation caused by compound addition–none of the tested NSAIDs had
any effect on bead-GST-protein binding. EC50 values were determined using Prism to determine dose response fits as shown in Figure 1 of main text; fits have R2 > 0.9. Active
compounds based on same definition used as in primary screena. […]
‡A well-characterized selective Cdc42 inhibitor served as a positive control.

Cdc42 [3] = target: T1, Cdc42 (Homo sapiens, UniProt P60953); assay: G-trap flow cytometric effector binding assay, HeLa cells; format: cell-based
T1 construct: endogenous in cells; host or cells: HeLa
T1 sequence (P60953 whole entry): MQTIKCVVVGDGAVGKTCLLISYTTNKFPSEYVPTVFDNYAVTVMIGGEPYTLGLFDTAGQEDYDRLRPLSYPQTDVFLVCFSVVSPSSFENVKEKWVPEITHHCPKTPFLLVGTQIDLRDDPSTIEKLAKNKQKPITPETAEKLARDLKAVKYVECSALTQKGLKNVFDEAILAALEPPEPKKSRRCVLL

Cdc42 [4] = target: T2, Cdc42 (Mus musculus, UniProt P60766); assay: GLISA, Swiss 3T3 cells; format: cell-based; settings: Swiss-3T3; at 300 µM
T2 construct: endogenous in cells; host or cells: Swiss 3T3
T2 sequence (P60766 whole entry): as the sequence (P60953 whole entry) above

human COX-1 = target: T3, human COX-1 (Homo sapiens, UniProt P23219); assay: Cyclooxygenase assay (CEREP), PGE2 formation; format: biochemical; settings: recombinant enzyme, 4 μM arachidonic acid
T3 construct: purchased CEREP Laboratories (contract assay); host or cells: Sf-9
T3 sequence (P23219 24-599): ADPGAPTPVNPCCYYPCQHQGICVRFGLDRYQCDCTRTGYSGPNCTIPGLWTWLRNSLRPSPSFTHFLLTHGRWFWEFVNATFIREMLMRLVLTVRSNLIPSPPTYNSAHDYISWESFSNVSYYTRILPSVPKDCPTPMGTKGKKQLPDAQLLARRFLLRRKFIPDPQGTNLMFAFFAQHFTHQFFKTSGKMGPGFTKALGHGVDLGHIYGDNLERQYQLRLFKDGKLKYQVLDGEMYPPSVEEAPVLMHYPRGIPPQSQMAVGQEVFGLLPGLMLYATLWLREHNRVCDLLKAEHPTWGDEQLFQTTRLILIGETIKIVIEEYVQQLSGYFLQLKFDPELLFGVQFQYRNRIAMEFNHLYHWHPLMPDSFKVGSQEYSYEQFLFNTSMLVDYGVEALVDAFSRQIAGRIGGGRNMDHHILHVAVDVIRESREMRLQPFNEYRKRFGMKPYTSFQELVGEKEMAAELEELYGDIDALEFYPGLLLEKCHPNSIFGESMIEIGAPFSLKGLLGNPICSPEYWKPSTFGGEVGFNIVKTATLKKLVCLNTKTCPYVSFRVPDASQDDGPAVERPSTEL

human COX-2 = target: T4, human COX-2 (Homo sapiens, UniProt P35354); assay: Cyclooxygenase assay (CEREP), PGE2 formation; format: biochemical; settings: recombinant enzyme, 4 μM arachidonic acid
T4 construct: purchased CEREP Laboratories (contract assay); host or cells: Sf-9
T4 sequence (P35354 18-604): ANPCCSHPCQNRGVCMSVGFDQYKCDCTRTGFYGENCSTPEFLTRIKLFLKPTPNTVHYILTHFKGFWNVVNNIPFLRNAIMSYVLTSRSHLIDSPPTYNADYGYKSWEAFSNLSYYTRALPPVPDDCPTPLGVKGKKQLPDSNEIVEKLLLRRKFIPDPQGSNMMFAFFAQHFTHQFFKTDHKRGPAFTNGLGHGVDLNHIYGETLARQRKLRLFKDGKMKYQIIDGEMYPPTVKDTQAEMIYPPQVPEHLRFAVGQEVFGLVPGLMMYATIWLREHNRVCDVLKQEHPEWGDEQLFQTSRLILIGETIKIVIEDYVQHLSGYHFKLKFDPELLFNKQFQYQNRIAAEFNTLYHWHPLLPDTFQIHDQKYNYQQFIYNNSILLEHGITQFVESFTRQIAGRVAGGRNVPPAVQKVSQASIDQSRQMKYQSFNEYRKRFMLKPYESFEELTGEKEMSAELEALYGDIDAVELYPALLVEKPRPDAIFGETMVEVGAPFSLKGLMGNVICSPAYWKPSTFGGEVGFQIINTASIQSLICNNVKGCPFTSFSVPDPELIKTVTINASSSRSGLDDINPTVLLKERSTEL

[5] = system: Rac1 membrane localization; assay: Rac1 immunolocalization, OvCa433 cells; format: cell-based, human
[6] = system: Tiam1 membrane localization; assay: Tiam1 immunolocalization, OvCa433 cells; format: cell-based, human
Description: OvCa433 were plated on coverslips, treated with 300 μM NSAIDs for 1 h, fixed with 3% paraformaldehyde and immunostained for Rac1 or Tiam1. Actin was visualized with rhodamine phalloidin from Invitrogen (F432). Cells were imaged on a Zeiss LSM510 using a 63x objective and quantified using Image J.
Rac1 and Tiam1 antibodies were confirmed in our hands to recognize single protein species of the predicted molecular weight by immunoblot.

[7] = system: Rac1 and Tiam1 protein levels; assay: Immunoblot of protein levels; format: cell-based, human
Description: Cells were stimulated with EGF at a final concentration of 1 nM for 10 min. Cells were lysed in a RIPA buffer consisting of 50 mM Tris pH 7.4, 1% NP-40, 0.25% sodium deoxycholate, 150 mM NaCl, 1 mM EDTA, 1 mM PMSF, 1 mM sodium vanadate, 10 mM sodium fluoride, 1 μg/mL each of pepstatin, aprotinin and leupeptin, 10 mM sodium pyrophosphate and 10 mM beta-glycerophosphate.
N = 3. See also Figure D in S1 File for time dependent loss of Rac1 membrane localization. N = 3 (B) Quantification of image intensity using Image J of 3 representative confocal images as shown in panel (A) containing 20–30 cells/field normalized to actin and untreated controls. (C) Western blot analyses of lysates from cells treated with 300 μM compound as indicated for 24 h as compared to untreated controls. […] Blots were probed for Tiam1 (200 kDa), GAPDH (37 kDa), Rac1 (20 kDa), as a loading control. (D) Quantification of image intensity using Image J. Each marker was normalized to GAPDH and untreated controls. N = 3.

[8] = immunofluorescence quantified using ImageJ

Chain of Cdc42Q61L activating mutant (P60953 whole entry Q61L): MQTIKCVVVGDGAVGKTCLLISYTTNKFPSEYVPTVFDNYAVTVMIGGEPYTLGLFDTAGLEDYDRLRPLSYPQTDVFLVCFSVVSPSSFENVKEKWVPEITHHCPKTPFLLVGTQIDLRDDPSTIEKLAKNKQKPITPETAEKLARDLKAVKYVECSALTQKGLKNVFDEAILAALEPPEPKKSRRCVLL

## COc1ccc2cc(CC(=O)O)ccc2c1 [6-MNA, 6-methoxy-2-napthalene acetic acid]
[1]
  Rac1 (act) EC50: inactive
[2]
  activity against the constitutively active Cdc42 mutant: weak activity
[2]; 10 nM to 100 µM, read-out: Cdc42 (act) EC50
  EC50: 12.3 µM
Ras-related GTPases; 10 nM to 100 µM
  activity against the GTPases in confirmatory dose response assays (words): lacked activity
Ras-related GTPases; 10 nM to 100 μM, listed as 6MNA
  activity against the GTPases in confirmatory dose response assays (words): inactive
Ras-related GTPases; at 0.1 mM, against all GTPases
  effect: less than 20%
Cdc42 [3]
  fold lower potency than R-naproxen, Cdc42: 3 fold
Cdc42 [4]
  inhibition at 300 µM: 0%
Human COX-1
  IC50: 28 µM
Human COX-2
  IC50: > 100 µM
[5]; 300 μM
  Rac1 membrane localization: no effect
[5]; [8]
  Rac PM Localiz.: 98%
[6]; 300 μM
  Tiam1 membrane localization: only slightly reduced
[6]; [8]
  Tiam1 GEF PM localiz.: 73%
[7]; 300 μM, 24 h, immunoblot
  total Rac1 or Tiam1 protein levels: did not alter
[7]; immunoblot analysis
  Rac protein expression: No change
